The assay has as its system IL-2. Kind of assay: In vitro immune synapse system, immune adjuvant immunostimulation: IL-2 level. It is filed as cell-based, pig. As to conditions: 2 μg/well poly IC, in comparison to IL-18 (0.1 ng/well); Treg/APC system; FIG. 5; P<0.05. As for the experimental part:
In this Example, a commercial kit of porcine IL-2 and IL-10 was used for quantifying the IL-2 and IL-10 levels in the porcine cell supernatant. According to the steps of the specification provided in the kit, the standard liquid provided by the kit was diluted for later use, and a flow was described briefly below. Firstly, 100 μL of sample or diluted standard liquid was added into a 96-well plate and incubated for 1 hour. Next, 200 μL of biotinylated antibody reagent was added into the 96-well plate and incubated for another hour. […] Afterwards, 100 μL of stop solution was added to terminate the reaction in order to measure the absorbance. […]
Generally, the absorbance could be read by a commercial continuous spectrophotometer at a wavelength of 450/540 nm, and a standard curve was established by serially-diluted standard solution of various concentrations versus respective absorbances. Then, the cell cytokine concentration of each sample was calculated according to the regression equation of the standard curve, and a commercially statistical software (such as a SAS statistical program) was used to calculate significant difference between the means of all groups, as shown by the results of FIGS. 3A to 3B. […]

For poly-IC, the “IL-2 level in the immunological synapse” value was “significantly improve”.
